Tested on: Plasmodium falciparum
Assay: GSK_TCMDC: Inhibition of Plasmodium falciparum 3D7 in whole erythrocytes, using parasite LDH activity as an index of growth.
Type: functional, organism-based
Details: Plasmodium falciparum, 3D7

Structure (SMILES)	XC50 [nM]
Cc1cn(CC(=O)Nc2cccc(-c3cccc(-c4nc5cccc(C)c5[nH]4)c3)c2)c(=O)[nH]c1=O	581
CC(=NNC(S)=NCCc1ccccn1)c1ccccn1	319
O=C(Nc1ccc2ccccc2c1)c1ccc(CN2CCC(Cc3ccccc3)CC2)cc1	876
CCCCCc1cc(O)c2c(c1)OC(C)(C)C=C2C1=CCN(Cc2ccsc2)CC1	964
O=C(NCCNc1ccnc(Nc2ccc(F)cc2)n1)c1cc2ccccc2s1	755
c1csc(-c2ccc3c(c2)CC(NCc2c[nH]c4cnccc24)C3)c1 (centres undefined)	738
CN1CCN(c2ccc(Nc3ccnc4ccc(-c5ccccc5)cc34)cc2)CC1	92.9
Cc1cccc2nc(-c3ccc(-c4ccc(C(=O)NCCc5cn(C)cn5)cc4)s3)[nH]c12	960
CCOC(=O)c1c(C)n(-c2ccc(Cl)cc2)c2ccc(OC(=O)C=Cc3ccccc3)cc12	698
COc1cccc(Nc2nc(Nc3cccc(C#N)c3)cc(C(F)(F)F)n2)c1	834
CCOc1ccc2c(=NN=Cc3cccc(OC)c3OC)cc(C)[nH]c2c1	898
Cc1cccc2nc(-c3cccc(-c4cccc(NC(=O)c5ccoc5)c4)c3)[nH]c12	219
Nc1cccc(CNCc2cccc(-c3cccc(-c4nc5ccccc5[nH]4)c3)c2)c1	615
COc1ccc(-n2nc(C(=O)NCCC3=CCCCC3)c3ccccc3c2=O)cc1	682
O=C(NC1CCCCC1)c1csc(C2CCCN(C(=O)c3ccc(O)c(-c4cccc(C(F)(F)F)c4)c3)C2)n1 (centres undefined)	1670
CCn1c(-c2nc(-c3ccc4c(c3)OCO4)cnc2N)nc2cnccc21	429
CN1CCN(c2cc(NC(=O)Nc3cccc(Cl)c3Cl)ccc2Cl)CC1	734
CCc1c(C)nc(-n2nc(C)cc2NC(=O)c2ccc(OC)cc2OC)[nH]c1=O	827
O=C(/C=C/c1cccc(C(F)(F)F)c1)NCCCCCN1CCN(C(=O)Nc2ccc(Cl)c(Cl)c2)CC1	935
O=c1cc(NCCCNCc2cccc3c2OC(F)(F)O3)[nH]c2ccccc12	947
O=C(Nc1ccc(Cn2ncc(N3CCCNCC3)c(Cl)c2=O)cc1)Nc1cccc(Oc2ccccc2)c1	987
Cc1cc(=O)c2cc(Oc3ccc(OC(F)(F)F)cc3)ccc2[nH]1	990
Cn1cnc(CCNC(=O)c2cccc(-c3ccc(-c4nc5cc(F)ccc5[nH]4)cc3)c2)c1	941
CCN(CC)S(=O)(=O)n1ncc2c3c(N)nc(N)nc3ccc21	54.9
CCCCCCc1c(C)nc2cc(OC)ccc2c1O	119

Structure (SMILES)	XC50 [nM]
Cc1cc2ncc(C(N)=O)c(Nc3ccc(N4CCOCC4)cc3)c2cc1S(C)(=O)=O	675
COCCNC(=O)c1ccc(OC2CCN(Cc3ccc(F)c(F)c3)CC2)c(Cl)c1	1490
CC[C@H]1CN2CC[C@@H]1C[C@H]2[C@H](O)c1cc(-c2cccnc2)nc2ccc(OC)cc12	37.9
O=[N+]([O-])c1cccc(NC(=S)N2CCCN(Cc3ccc(Cl)cc3Cl)CC2)c1	925
CC(C)C[C@H](NC(=O)c1cc2ccccc2s1)C(=O)N[C@H]1CCN(Cc2ccc(I)c(OCCN3CCCC3)c2)C1	1350
C#CCN1CCC2=C(C1)c1c(O)cc(C(C)CCCc3ccc(F)cc3)cc1OC2(C)C (centres undefined)	731
CCOc1ccc(C(=O)Nc2cc(Br)c3c(c2)CNCC3)cc1C(F)(F)F	939
Cc1ccc2c(=O)n(C)c(=O)n(C)c2n1	819
Nc1nc2c(cnn2CCCCCCCP(=O)(O)O)c(=O)[nH]1	469
Cc1nc2c(c(O)c1Cl)-c1ccc(Oc3cccc(C(F)(F)F)c3)cc1C2=O	37.9
Oc1ccc2ncnc(Nc3ccc(OCc4cccc(F)c4)c(Cl)c3)c2c1	993
COc1cc2c(cc1S(=O)(=O)c1ccc(NC(=O)c3cccc(C(F)(F)F)c3)cc1)CCN(C)CC2	1380
CC(C)COc1ccc(Cl)cc1Cc1nc(-c2nc3cccc(CN4CCN(C)CC4)c3[nH]2)cs1	1330
COc1ccccc1CCNc1nc(C)cc(N[C@@H](CC(C)C)C(=O)NCc2cccs2)n1	793
N#Cc1ccc(S(=O)(=O)N2C(c3cccc([N+](=O)[O-])c3)C(C(=O)c3ccccc3)N(C3CCCCC3)C2c2cccc([N+](=O)[O-])c2)cc1 (centres undefined)	1080
O=C(Nc1cccc(-c2cccc(-c3nc4cc(C(F)(F)F)ccc4[nH]3)c2)c1)c1cccnc1	404
CC(C)CCNC(=O)C1Cc2c([nH]c3cc(Cl)ccc23)C2(CCN(CCc3ccccc3)CC2)N1 (centres undefined)	690
CCCOc1ccccc1C(=O)Nc1nonc1-c1ccc(OCC)c(OCC)c1	711
CC(C)OC(=O)c1ccc(NC(=O)N[C@@H](Cc2ccc(O)cc2)C(=O)NC2CCC(CCN3C4CCC3c3ccccc34)CC2)cc1 (some centres undefined)	829
Fc1ccc2[nH]c(-c3ccc(-c4ccc(CNCC5CCCO5)cc4)cc3)nc2c1 (centres undefined)	440
CC[C@H]1CN2CC[C@H]1C[C@@H]2[C@@H](O)c1cc(Cl)nc2ccc(OC)cc12	63.5
Fc1ccc(C(OCC2CCCN(Cc3cccc4cccnc34)C2)c2ccc(F)cc2)cc1 (centres undefined)	703
CCOc1ccc(-c2noc(-c3c[nH]c4ccccc4c3=O)n2)cc1	205
N=C(N)Nc1ccc(C(=O)O)c(O)c1	1030

— ChEMBL document CHEMBL1157539, “Thousands of chemical starting points for antimalarial lead identification” (Nature, 2010)
